We go through 2 substances from patent US4973668A, “Variants of alpha 1-antitrypsin which are useful, in particular, as kallikrein inhibitors” (Transgene S.A., priority 1986, dated 1990).

One assay has as its system human plasma kallikrein. Nature of the assay: antikallikrein activity, residual hydrolysis of chromozyme PK at 410 nm. The class given is biochemical. As to the method: The antikallikrein activity is assessed by measuring at 410 nm the residual extent of hydrolysis of chromosyme PK (benzoyl-Pro-Pre-Arg-4-nitroanilide acetate, Boehringer Mannheim).
2.6 pmol of human plasma kallikrein are preincubated at 37° C. with an increasing amount of inhibitor in 0.1 M Na phosphate/0.15 M NaCl buffer. After 30 minutes, the reaction is stopped by adding […] of substrate (final concentration 0.5 mM) and the residual enzyme activity is determined.

The subject of assay [1] is human thrombin. Nature of the assay: thrombin inhibition curves. The assay is classed as biochemical. To be noted: FIG. 3; comparison with alpha1-AT(Arg358).
The test system of assay [2] is human neutrophil elastase. Put plainly: inhibition of human neutrophil elastase by E. coli extracts. The assay is classed as biochemical. The settings on record: clarified sonicated E. coli extracts; FIG. 1; compared with normal (Met358)alpha1-AT. The method, then: Clarified sonicated extracts were prepared from induced cultures of E. coli TGE900 containing one of the above three plasmids.
Aliquots of extracts are tested for their capacity to inhibit human neutrophil elastase (this technique having already been described).

Another assay relates to factor XIIF. The settings on record: ratio versus C1 inhibitor; cited from earlier work.
A further assay has as its system kallikrein. To be noted: ratio versus C1 inhibitor; cited from earlier work.
The test system of assay [3] is human thrombin. To be noted: general statement on the earlier variant; cited from earlier work.

“Also recorded” adds a separate entry of the source.

For the substance “(Ala^357, Arg^358)alpha1 -AT: variant of human alpha1-antitrypsin, Pro357 replaced by Ala and Met358 by Arg, expressed in E. coli from plasmid pTG1946”, the inhibition of kallikrein entry in the assay with human plasma kallikrein (2.6 pmol kallikrein, 37° C., 30 minutes preincubation, FIG. 2) is reported as “very much improved”; in the assay on human plasma kallikrein (2.6 pmol kallikrein, 37° C., 30 minutes preincubation; FIG. 2; Arg^358) alpha1 -AT) it was “capable of rapidly inhibiting”. Besides, the inhibition of thrombin result in the assay on human thrombin [1] is recorded as “very weak; also recorded: only very weakly”. Besides, the “inhibition of neutrophil elastase” value in assay [2] was “incapable of inhibiting”.

For the substance “(Arg^358)alpha1 -AT: human alpha1-antitrypsin variant with Met358 replaced by arginine, described in WO 86/00,337; plasmid pTG1900”, the “activity in inactivation of factor XIIF relative to C1 inhibitor” value in the assay on factor XIIF is given as 11.5 times. Further, in the assay on kallikrein, the “activity in inactivation of kallikrein relative to C1 inhibitor” value is on record as 4.1 times. In the assay on human thrombin [3], the antithrombin activity result was “very substantial”.
